In patent US20230364119A1, “AUTOPHAGY ACTIVATOR” (Resonac Corporation, priority 2020, published 2023):

Tests used:
ATG5 gene = ATG5 gene expression promoting effect in human senescent fibroblasts (quantitative real-time PCR); assay type: cell-based
Procedure: Senescent fibroblasts were prepared by the following procedure.
Normal human fibroblasts (NB1RGB, RIKEN BRC Cell Bank) were cultured until confluent in D-MEM medium (manufactured by Sigma-Aldrich) to which 10% fetal bovine serum (manufactured by MP Biomedicals) was added. Thereafter, the cells were treated with 250 μM aqueous hydrogen peroxide for 2 hours, and cultured for 24 hours in D-MEM medium to which fresh 10% fetal bovine serum was added. The treatment with aqueous hydrogen peroxide and the cell culture operation were repeated three times, and the obtained fibroblasts were used as senescent fibroblasts.
The prepared senescent fibroblasts were prepared at a seeding density of 10000 cells/cm^2 and cultured for 24 hours in D-MEM medium (manufactured by Sigma-Aldrich) to which 10% fetal bovine serum (manufactured by MP Biomedicals) was added. […]
(§1) Then, using Nucleospin (registered trademark) RNA kit (manufactured by Takara Bio Inc.), RNA was extracted from senescent fibroblasts or normal human fibroblasts in each example, and cDNA was synthesized from the obtained RNA. Next, using this cDNA as a template, by quantitative real-time PCR, the expression level of each gene was quantified using primers (manufactured by Takara Bio Inc.) specific to the LC3 gene, ATG5 gene, and Beclin 1 gene, respectively. […]

LC3 gene = LC3 gene expression promoting effect in human neuroblastoma in the presence of amyloid β; assay type: cell-based
Procedure: In the presence of an autophagy activator, the expression levels of the LC3 gene, ATG5 gene, and Beclin 1 gene in human neuroblastoma (SH-SY5Y; obtained from ATCC) were measured by the following test method, and the effect of promoting the expression of the LC3 gene, ATG5 gene, and Beclin 1 gene by an autophagy activator was evaluated.
In the following examples and comparative examples, tests were performed by adding amyloid β, which is known to cause a decrease in autophagy in nerve cells, to each medium.
SH-SY5Y cells were prepared at a seeding density of 10000 cells/cm^2 and cultured for 24 hours in D-MEM medium/Ham's F-12 medium (manufactured by Sigma-Aldrich) to which 10% fetal bovine serum (manufactured by MP Biomedicals) was added. Next, in Example 15, the inositol derivative A dissolved in purified water was added to the medium such that the final concentration of the inositol derivative A was 10-4% (V/V). […]
as §1, with “SH-SY5Y cells” for “senescent fibroblasts or normal human fibroblasts”

In the case of O[C@H]1[C@H](O)[C@@H](O)[C@H](O)[C@@H](O)[C@H]1O [Comparative Example 2, myo-inositol], the “Relative gene expression level ATG5” value (ATG5 gene; 24 hours, 10^−3% (V/V) inositol or inositol derivative A, with the vitamin derivative of the example where added, GAPDH-standardized, Comparative Example 1 (purified water) = 1.00) is reported as 1.21, the “expression level of the ATG5 gene, in words” value (ATG5 gene; compared to Comparative Example 1 (purified water only)) is reported as “more increased” and the “expression level of the LC3 gene, in words” value (LC3 gene; SH-SY5Y cells with amyloid β, compared to Reference Example 3 (purified water only, no amyloid β)) is reported as “slightly increased”. The “Relative gene expression level LC3” value (LC3 gene; SH-SY5Y cells, 20 μM amyloid β present, 48 hours, 10^−3% (V/V) inositol or inositol derivative A, with the vitamin derivative of the example where added, Reference Example 3 (purified water, no amyloid β) = 1.00) was 1.41.
